In the supplement of paper PMC10307832:

Columns and labels:
Test in all cases: relative viability (nuclei count vs DMSO), 5 days (fraction); higher = more cells survive
[1] = compound: C[C@@H](Oc1cc(-c2cnn(C3CCNCC3)c2)cnc1N)c1c(Cl)ccc(F)c1Cl [Crizotinib] + Cc1nc(NC(=O)N2CCC[C@H]2C(N)=O)sc1-c1ccnc(C(C)(C)C(F)(F)F)c1 [Alpelisib] (partner 2 µM)
In short: (§1)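 Lung cancer cell lines were pin-tool dosed in 1536-well plates on the day after seeding, with either a lone drug or a fixed anchor-drug dose plus five library-drug doses (not always all listed) in √10 steps. Nuclei were counted on 4× images after 5 days. Relative viability is the ratio of treated-well to vehicle-well nuclei counts, with each value a median of duplicate plates.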

[2] = compound: CC(C)C[C@H](NC(=O)[C@H](CCc1ccccc1)NC(=O)CN1CCOCC1)C(=O)N[C@@H](Cc1ccccc1)C(=O)N[C@@H](CC(C)C)C(=O)[C@@]1(C)CO1 [Carfilzomib] + CC(=O)c1c(C)c2cnc(Nc3ccc(N4CCNCC4)cn3)nc2n(C2CCCC2)c1=O [Palbociclib] (partner 0.5 µM)
In short: as §1

[3] = compound: CC(C)C[C@H](NC(=O)[C@H](CCc1ccccc1)NC(=O)CN1CCOCC1)C(=O)N[C@@H](Cc1ccccc1)C(=O)N[C@@H](CC(C)C)C(=O)[C@@]1(C)CO1 [Carfilzomib] + CCNC(=O)c1noc(-c2cc(C(C)C)c(O)cc2O)c1-c1ccc(CN2CCOCC2)cc1 [Luminespib] (partner 0.01 µM)
In short: as §1

[4] = compound: C[C@@H](Oc1cc(-c2cnn(C3CCNCC3)c2)cnc1N)c1c(Cl)ccc(F)c1Cl [Crizotinib] + NC(=O)Nc1cc(-c2cccc(F)c2)sc1C(=O)N[C@H]1CCCNC1 [AZD7762] (partner 0.2 µM)
In short: as §1

Cell Line | relative viability ([1]; first compound 0.01 µM) | relative viability ([1]; first compound 0.03162 µM) | relative viability ([1]; first compound 0.3162 µM) | relative viability ([1]; first compound 1 µM) | relative viability ([2]; first compound 0.001 µM) | relative viability ([2]; first compound 0.003162 µM) | relative viability ([2]; first compound 0.01 µM) | relative viability ([2]; first compound 0.03162 µM) | relative viability ([2]; first compound 0.1 µM) | relative viability ([3]; first compound 0.001 µM) | relative viability ([3]; first compound 0.003162 µM) | relative viability ([3]; first compound 0.01 µM) | relative viability ([3]; first compound 0.03162 µM) | relative viability ([3]; first compound 0.1 µM) | relative viability ([4]; first compound 0.01 µM) | relative viability ([4]; first compound 0.03162 µM) | relative viability ([4]; first compound 0.1 µM) | relative viability ([4]; first compound 0.3162 µM) | relative viability ([4]; first compound 1 µM) | relative viability ([1]; first compound 0.1 µM)
NCI-H2085 | 0.954 | 1.02 | 1.05 | 0.954 | 0.501 | 0.47 | 0.456 | 0.371 | 0.265 | 0.505 | 0.472 | 0.359 | 0.205 | 0.189 | 0.961 | 1.01 | 0.986 | 0.737 | 1.02 | 
LU99A | 0.549 | 0.501 | 0.442 | 0.558 | 0.408 | 0.402 | 0.439 | 0.351 | 0.188 | 0.252 | 0.221 | 0.284 | 0.218 | 0.191 | 0.276 | 0.362 | 0.34 | 0.32 | 0.407 | 0.508
NCI-H1944 | 0.787 |  | 0.808 | 0.861 | 0.318 | 0.361 | 0.372 | 0.318 | 0.152 | 0.698 | 0.774 | 0.707 | 0.732 | 0.205 | 0.449 | 0.566 | 0.53 | 0.446 | 0.489 | 0.804
NCI-H3122 | 0.729 | 0.667 | 0.867 | 0.796 | 0.238 | 0.222 | 0.191 | 0.187 | 0.132 | 0.064 | 0.0963 | 0.106 | 0.107 | 0.106 | 1.01 | 1.05 | 0.93 | 0.962 | 0.921 | 0.857
LCLC-97TM1 | 0.199 | 0.232 | 0.265 | 0.273 | 0.217 | 0.214 | 0.24 | 0.0666 | 0.0679 | 0.743 | 0.858 | 0.753 | 0.27 | 0.14 | 0.193 | 0.138 | 0.252 | 0.104 | 0.339 | 0.24
LXF-289 | 0.968 | 1.07 | 0.987 | 1.03 | 0.586 | 0.582 | 0.569 | 0.0924 | 0.12 | 0.654 | 0.761 | 0.552 | 0.515 | 0.0761 | 1.05 | 1.11 | 1.16 | 1 | 1.19 | 1.01
NCI-H2405 | 0.74 | 0.762 | 0.818 | 0.857 | 0.498 | 0.527 | 0.539 | 0.489 | 0.136 |  | 0.873 | 0.851 | 0.759 | 0.32 | 0.632 | 0.695 | 0.684 | 0.763 | 0.755 | 0.69
NCI-H727 | 0.655 | 0.575 | 0.674 | 0.685 | 0.575 | 0.607 | 0.628 | 0.584 | 0.417 | 0.32 | 0.436 | 0.294 | 0.498 | 0.201 | 0.566 | 0.568 | 0.567 | 0.433 | 0.661 | 0.583
LC-2-ad | 0.839 | 0.981 |  | 0.895 | 0.549 | 0.495 | 0.488 | 0.481 | 0.32 | 0.974 | 1.19 | 1.12 | 0.593 | 0.265 | 0.779 | 0.854 | 0.846 |  | 0.853 | 1.01
